From patent publication US8729054B2, “3-desoxy-2-methylene-vitamin D analogs and their uses” (Wisconsin Alumni Research Foundation, priority 2011, dated 2014) come the findings set out here.

pEC50, pKi: −log10 of the molar value. “Also recorded” adds a separate entry of the source.

In experiment [1] the test system is vitamin D-deficient rats. The experiment can be described thus: Bone calcium mobilization (serum calcium). Type of experiment: in vivo, rat. As to conditions: for bone calcium mobilization activity as compared to 1,25(OH)2D3: rats on low calcium diet (0.02%), four consecutive ip doses. How it is done:
(§1) Male, weanling Sprague-Dawley rats were placed on Diet 11 (Suda et al, J. Nutr. 100:1049, 1970) (0.47% Ca)+vitamins AEK for one week followed by Diet 11 (0.02% Ca)+vitamins AEK for 3 weeks. The rats were then switched to the same diet containing 0.47% Ca for one week followed by two weeks on the same diet containing 0.02% Ca. Dose administration began during the last week on 0.02% calcium diet. Four consecutive ip doses were given approximately 24 hours apart. Twenty-four hours after the last dose, blood was collected from the severed neck and the concentration of serum calcium determined by atomic absorption spectrometry as a measure of bone calcium mobilization. The first 10 cm of the intestine was also collected for intestinal calcium transport analysis using the everted gut sac method.

For experiment [2], the system named is Human promyelocytic leukemia (HL60) cells. The experiment can be described thus: HL-60 differentiation (nitro blue tetrazolium reduction). Type of experiment: cell-based. Conditions: for pEC50: HL60 cells, four days after treatment, NBT reduction. How it is done:
The study drugs were dissolved in ethanol and the concentrations determined using UV spectrophotometry. Serial dilutions were prepared so that a range of drug concentrations could be tested without changing the final concentration of ethanol (≦0.2%) present in the cell cultures.
Human promyelocytic leukemia (HL60) cells were grown in RPMI-1640 medium containing 10% fetal bovine serum. The cells were incubated at 37° C. in the presence of 5% CO2.
HL60 cells were plated at 1.2×10^5 cells/ml. Eighteen hours after plating, cells in duplicate were treated with drug. Four days later, the cells were harvested and a nitro blue tetrazolium reduction assay was performed (Collins et al., 1979; J. Exp. Med. 149:969-974). The percentage of differentiated cells was determined by counting a total of 200 cells and recording the number that contained intracellular black-blue formazan deposits. Verification of differentiation to monocytic cells was determined by measuring phagocytic activity (data not shown).

Experiment [3] has as its system 24-hydroxylase (24Ohase) gene promoter. Briefly: In vitro transcription assay, luciferase reporter in ROS 17/2.8 (bone) cells. Type of experiment: cell-based. As to conditions: for transcriptional activity in bone cells as compared to 1α,25-dihydroxyvitamin D3: 24-hydroxylase gene; for pEC50: ROS 17/2.8 cells, luciferase, sixteen hours after dosing, read-out: EC50, transcriptional activity in bone cells (24-hydroxylase gene). How it is done:
Transcription activity was measured in ROS 17/2.8 (bone) cells that were stably transfected with a 24-hydroxylase (24Ohase) gene promoter upstream of a luciferase reporter gene (Arbour et al., 1998). Cells were given a range of doses. Sixteen hours after dosing the cells were harvested and luciferase activities were measured using a luminometer. RLU=relative luciferase units.
On the technique in general: A reporter such as luciferase makes a cellular process visible.

Experiment [4] deals with T1, full-length recombinant rat vitamin D receptor (Rattus norvegicus, UniProt P13053).
T1 construct: Full-length recombinant rat receptor was expressed in E. coli BL21 (DE3) Codon Plus RIL cells; histidine tag (C); made in house; host or cells: E. coli BL21 (DE3) Codon Plus RIL
T1 sequence (P13053 1-423): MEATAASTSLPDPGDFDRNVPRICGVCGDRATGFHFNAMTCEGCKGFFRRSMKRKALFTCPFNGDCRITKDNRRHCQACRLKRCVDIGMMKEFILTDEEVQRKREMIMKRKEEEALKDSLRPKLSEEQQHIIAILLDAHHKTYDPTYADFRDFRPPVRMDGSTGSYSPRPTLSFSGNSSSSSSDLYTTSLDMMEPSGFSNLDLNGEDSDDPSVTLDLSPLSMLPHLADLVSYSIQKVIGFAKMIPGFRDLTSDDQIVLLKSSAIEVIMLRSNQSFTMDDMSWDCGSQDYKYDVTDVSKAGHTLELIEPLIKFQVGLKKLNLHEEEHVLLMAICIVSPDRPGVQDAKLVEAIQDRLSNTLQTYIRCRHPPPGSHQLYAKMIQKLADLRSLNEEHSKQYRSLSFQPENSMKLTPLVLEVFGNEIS
Briefly: Vitamin D receptor binding, competition with [3H]-1,25(OH)2D3. As to conditions: full-length recombinant rat VDR; for pKi: 1 nM radioligand. How it is done:
Full-length recombinant rat receptor was expressed in E. coli BL21 (DE3) Codon Plus RIL cells and purified to homogeneity using two different column chromatography systems. The first system was a nickel affinity resin that utilizes the C-terminal histidine tag on this protein. The protein that was eluted from this resin was further purified using ion exchange chromatography (S-Sepharose Fast Flow). Aliquots of the purified protein were quick frozen in liquid nitrogen and stored at −80° C. until use. For use in binding assays, the protein was diluted in TEDK50 (50 mM Tris, 1.5 mM EDTA, pH 7.4, 5 mM DTT, 150 mM KCI) with 0.1% Chaps detergent. The receptor protein and ligand concentration was optimized such that no more than 20% of the added radiolabeled ligand was bound to the receptor.
Radiolabeled and unlabeled ligands were added to 100 mcl of the diluted protein at a final ethanol concentration of ≦10%, mixed and incubated overnight on ice to reach binding equilibrium. The following day, 100 mcl of hydroxylapatite slurry (50%) was added to each tube and mixed at 10-minute intervals for 30 minutes. The hydroxylapaptite was collected by centrifugation and then washed three times with Tris-EDTA buffer (50 mM Tris, 1.5 mM EDTA, pH 7.4) containing 0.5% Titron X-100. After the final wash, the pellets were transferred to scintillation vials containing 4 ml of Biosafe II scintillation cocktail, mixed and placed in a scintillation counter. Total binding was determined from the tubes containing only radiolabeled ligand.

Experiment [5] has as its system vitamin D-deficient rats. The experiment can be described thus: Intestinal calcium transport (everted gut sac method). Type of experiment: in vivo, rat. As to conditions: rats on low calcium diet (0.02%), four consecutive ip doses. How it is done: as §1

In general, pEC50 refers to the negative decadic logarithm of the EC50, by convention in mol/L. For orientation: pKi means the Ki on a negative log10 scale, so that one unit is a factor of ten.

With `C=C1/C(=C\C=C2/CCC[C@]3(C)[C@@H]([C@H](C)CCCC(C)(C)O)CC[C@@H]23)C[C@@H](O)C[C@@H]1O` [1α,25-dihydroxyvitamin D3, reference compound], the “serum calcium levels” value with vitamin D-deficient rats [1] (at the dosages tested) is listed as “increased serum calcium levels”. In experiment [2], the pEC50 was 8.52.
On to `C=C1CC/C(=C/C=C2\CCC[C@]3(C)[C@@H]([C@H](C)CCCC(C)(C)O)CC[C@@H]23)C(=C)[C@H]1O` [3D-QM, (20R)-3-desoxy-1α,25-dihydroxy-2-methylene-vitamin D3], for which, in experiment [3], the “transcriptional activity in bone cells as compared to 1α,25-dihydroxyvitamin D3” value is reported as “about the same transcriptional activity” and the pEC50 is 9.70. Further, in experiment [4], the “affinity to the receptor as compared to 1,25(OH)2D3” value is given as “about the same affinity” and the negative-log Ki (pKi) is 9.40. The “mobilization of bone calcium as compared to native hormone at the same dose” value in the experiment with vitamin D-deficient rats [1] (87 pmol/day for 4 consecutive days) is on record as “only slightly less mobilization of bone calcium than the native hormone”. Also, the “bone calcium mobilization activity as compared to 1,25(OH)2D3” value in the experiment with vitamin D-deficient rats [1] is given as “about the same potency as the native hormone”. Besides, the “potency on HL-60 cell differentiation as compared to 1,25(OH)2D3” value in experiment [2] is “about the same potency as 1,25(OH)2D3”. In experiment [2] (Homo sapiens, HL-60, 96 h), this molecule showed a pEC50 of 9.00.
Regarding `C=C1CC/C(=C/C=C2\CCC[C@]3(C)[C@@H]([C@@H](C)CCCC(C)(C)O)CC[C@@H]23)C(=C)[C@H]1O` [3D-QMS, (20S)-3-desoxy-1α,25-dihydroxy-2-methylene-vitamin D3], the “intestinal calcium transport activity as compared to 1,25(OH)2D3” value with vitamin D-deficient rats [5] is reported as “more potent than 1,25(OH)2D3”. Further, in experiment [3], the “transcriptional activity in bone cells as compared to 1α,25-dihydroxyvitamin D3” value was “about the same transcriptional activity” and the pEC50 is 10.52. In experiment [4], the “affinity to the receptor as compared to 1,25(OH)2D3” value is “about the same affinity” and the pKi is 9.52. Further, in the experiment on vitamin D-deficient rats [1] (780 pmol/day for 4 consecutive days), the “mobilization of bone calcium as compared to native hormone at the same dose” value was “higher mobilization of bone calcium than the native hormone”. For the same molecule, the “bone calcium mobilization activity as compared to 1,25(OH)2D3” value in the experiment on vitamin D-deficient rats [1] was “more potent than the native hormone; also recorded: significantly more activity in mobilizing calcium from bone than 1,25(OH)2D3”. Besides, the pEC50 in experiment [2] (Homo sapiens, HL-60, 96 h) is 10.10. Further, the “potency on HL-60 cell differentiation relative to 1,25(OH)2D3” value in experiment [2] (compared with 1,25(OH)2D3) is reported as “about 40 times”.
